Measured values from patent US7112677B2, “1H-imidazo dimers” (3M Innovative Properties Company, priority 2002, dated 2006).

Columns and labels:
interferon (α) = test: Cytokine Induction in Human Cells: interferon (α) by ELISA; type: cell-based; details: human PBMC, incubated 18 to 24 hours, tested at 30–0.014 μM; induction at ≦10 μM
Text: (§1) An in vitro human blood cell system is used to assess cytokine induction. Activity is based on the measurement of interferon and tumor necrosis factor (α) (IFN and TNF, respectively) secreted into culture media as described by Testerman et. al. In “Cytokine Induction by the Immunomodulators Imiquimod and S-27609”, Journal of Leukocyte Biology, 58, 365–372 (September, 1995).
(§2) Whole blood from healthy human donors is collected by venipuncture into EDTA vacutainer tubes. Peripheral blood mononuclear cells (PBMC) are separated from whole blood by density gradient centrifugation using Histopaque®-1077. Blood is diluted 1:1 with Dulbecco's Phosphate Buffered Saline (DPBS) or Hank's Balanced Salts Solution (HBSS). The PBMC layer is collected and washed twice with DPBS or HBSS and resuspended at 4×10^6 cells/mL in RPMI complete. The PBMC suspension is added to 48 well flat bottom sterile tissue culture plates (Costar, Cambridge, Mass. or Becton Dickinson Labware, Lincoln Park, N.J.) containing an equal volume of RPMI complete media containing test compound.
(§3) The compounds are solubilized in dimethyl sulfoxide (DMSO). The DMSO concentration should not exceed a final concentration of 1% for addition to the culture wells. The compounds are generally tested at concentrations ranging from 30–0.014 μM.
(§4) The solution of test compound is added at 60 μM to the first well containing RPMI complete and serial 3 fold dilutions are made in the wells. The PBMC suspension is then added to the wells in an equal volume, bringing the test compound concentrations to the desired range (30–0.014 μM). The final concentration of PBMC suspension is 2×10^6 cells/mL. The plates are covered with sterile plastic lids, mixed gently and then incubated for 18 to 24 hours at 37° C. in a 5% carbon dioxide atmosphere.
(§5) Following incubation the plates are centrifuged for 10 minutes at 1000 rpm (˜200×g) at 4° C. The cell-free culture supernatant is removed with a sterile polypropylene pipet and transferred to sterile polypropylene tubes. Samples are maintained at −30 to −70° C. until analysis. The samples are analyzed for interferon (a) by ELISA and for tumor necrosis factor (α) by ELISA or IGEN Assay.
Interferon (α) concentration is determined by ELISA using a Human Multi-Species kit from PBL Biomedical Laboratories, New Brunswick, N.J. Results are expressed in pg/mL.

[1] = test system: tumor necrosis factor (α); test: Cytokine Induction in Human Cells: tumor necrosis factor (α) by ELISA or IGEN Assay; type: cell-based; details: human PBMC, incubated 18 to 24 hours, tested at 30–0.014 μM; induction at ≦10 μM
Text: as §1, §2, §3, §4, §5
Tumor necrosis factor (α) (TNF-α) concentration is determined using ELISA kits available from Biosource International, Camarillo, Calif. Alternately, the TNF-α concentration can be determined by Origen® M-Series Immunoassay and read on an IGEN M-8 analyzer from IGEN International, Gaithersburg, Md. The immunoassay uses a human TNF-α capture and detection antibody pair from Biosource International, Camarillo, Calif. Results are expressed in pg/mL.

[2] = Solubility in DMSO for testing; type: physicochemical; set-up: key: *: the compound was not adequately soluble in DMSO to permit testing; details: printed as * in the cytokine columns
Method: as §3
Compounds of the invention were tested for their ability to induce cytokine biosynthesis using the method described above.

melting point [°C] | adequately soluble in DMSO to permit testing [2] | Compound | Interferon (α) (interferon (α)) | Tumor Necrosis Factor (α) [1]
115 to 120 |  | COCCc1nc2c(N)nc3ccccc3c2n1CCOCCNS(=O)(=O)c1cccc(S(=O)(=O)NCCOCCn2c(CCOC)nc3c(N)nc4ccccc4c32)c1 [Example 5, N,N-bis(2-{2-[4-amino-2-(2-methoxyethyl)-1H-imidazo[4,5-c]quinolin-1-yl]ethoxy}ethyl)benzene-1,3-disulfonamide] | + (at concentrations of ≦10 μM the compound induced the indicated cytokine) | + (at concentrations of ≦10 μM the compound induced the indicated cytokine)
237 to 238 | * | CCOCc1nc2c(N)nc3ccccc3c2n1CCCCCCCCCCn1c(COCC)nc2c(N)nc3ccccc3c21 [Example 8, 1-[10-(4-amino-2-ethoxymethyl-1H-imidazo[4,5-c]quinolin-1-yl)decyl]-2-ethoxymethyl-1H-imidazo[4,5-c]quinoline-4-amine] |  | 
218.1 to 219.7 |  | CCCCc1nc2c(N)nc3ccccc3c2n1CCCCNC(=O)NCCCCn1c(CCCC)nc2c(N)nc3ccccc3c21 [Example 1, N,N′-bis[4-(4-amino-2-butyl-1H-imidazo[4,5-c]quinolin-1-yl)butyl]urea] | + (at concentrations of ≦10 μM the compound induced the indicated cytokine) | + (at concentrations of ≦10 μM the compound induced the indicated cytokine)
172.5 to 177 |  | COCCc1nc2c(N)nc3ccccc3c2n1CCOCCNC(=O)NCCCCCCCCNC(=O)NCCOCCn1c(CCOC)nc2c(N)nc3ccccc3c21 [Example 7, N,N″-1,8-octanediylbis[N′-(2-{2-[4-amino-2-(methoxyethyl)-1H-imidazo[4,5-c]quinolin-1-yl]ethoxy}ethyl)urea]] | + (at concentrations of ≦10 μM the compound induced the indicated cytokine) | + (at concentrations of ≦10 μM the compound induced the indicated cytokine)
152.1 to 156.1 |  | CCCCc1nc2c(N)nc3ccccc3c2n1CCCCNC(=O)Nc1ccc(Oc2ccc(NC(=O)NCCCCn3c(CCCC)nc4c(N)nc5ccccc5c43)cc2)cc1 [Example 3, N-[4-(4-amino-2-butyl-1H-imidazo[4,5-c]quinolin-1-yl)butyl]-N′-(4-{4-[({[4-(4-amino-2-butyl-1H-imidazo[4,5-c]quinolin-1-yl)butyl]amino}carbonyl)amino]phenoxy}phenyl)urea] | + (at concentrations of ≦10 μM the compound induced the indicated cytokine) | + (at concentrations of ≦10 μM the compound induced the indicated cytokine)
184.5 to 188.8 |  | CCCCc1nc2c(N)nc3ccccc3c2n1CCCCNC(=O)N[C@H]1CC[C@H](NC(=O)NCCCCn2c(CCCC)nc3c(N)nc4ccccc4c32)CC1 [Example 4, N,N″-trans-1,4-cyclohexylenebis{N′-[4-(4-amino-2-butyl-1H-imidazo[4,5-c]quinolin-1-yl)butyl]urea}] | + (at concentrations of ≦10 μM the compound induced the indicated cytokine) | + (at concentrations of ≦10 μM the compound induced the indicated cytokine)
160.3 to 165.6 |  | CCCCc1nc2c(N)nc3ccccc3c2n1CCCCNC(=O)Nc1cccc(NC(=O)NCCCCn2c(CCCC)nc3c(N)nc4ccccc4c32)c1 [Example 2, N,N″-1,3-phenylenebis{N′-[4-(4-amino-2-butyl-1H-imidazo[4,5-c]quinolin-1-yl)butyl]urea}] | + (at concentrations of ≦10 μM the compound induced the indicated cytokine) | + (at concentrations of ≦10 μM the compound induced the indicated cytokine)
 |  | COCCc1nc2c(N)nc3ccccc3c2n1CCOCCNC(=O)c1ccc(C(=O)NCCOCCn2c(CCOC)nc3c(N)nc4ccccc4c32)cc1 [Example 6, N,N′-bis(2-{2-[4-amino-2-(2-methoxyethyl)-1H-imidazo[4,5-c]quinolin-1-yl]ethoxy}ethyl)terephthalamide] | + (at concentrations of ≦10 μM the compound induced the indicated cytokine) | + (at concentrations of ≦10 μM the compound induced the indicated cytokine)
